Test results taken from patent US9427415B2, “Methods and compositions for modifying sensorial perception” (The Procter & Gamble Company, priority 2014, dated 2016).
Where two headings read alike, the source gives them in different places.

Key:
[1] = molecular target: T1, human TRPV1 (Homo sapiens, UniProt Q8NER1, M315I/T336M); experiment: Intracellular calcium (Fluo-4, FLIPR) activation of TRPV1 cells by GRAS compounds; format: cell-based; details: for activation at 1000 µM / activation at 100 µM: read-out: V1 activation, % of agonist value; for TRPV1 activation selectivity, in words: statement in description, see Table 1(i);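 on all read-outs here: TRPV1-expressing cells, FLIPR fluorescence at 488/514 nm with baseline subtracted, sampled every 2 s for 10 min after adding compound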
T1 construct: expressed in transfected cells; pcDNA3 control cells
T1 sequence (Q8NER1 whole entry M315I/T336M): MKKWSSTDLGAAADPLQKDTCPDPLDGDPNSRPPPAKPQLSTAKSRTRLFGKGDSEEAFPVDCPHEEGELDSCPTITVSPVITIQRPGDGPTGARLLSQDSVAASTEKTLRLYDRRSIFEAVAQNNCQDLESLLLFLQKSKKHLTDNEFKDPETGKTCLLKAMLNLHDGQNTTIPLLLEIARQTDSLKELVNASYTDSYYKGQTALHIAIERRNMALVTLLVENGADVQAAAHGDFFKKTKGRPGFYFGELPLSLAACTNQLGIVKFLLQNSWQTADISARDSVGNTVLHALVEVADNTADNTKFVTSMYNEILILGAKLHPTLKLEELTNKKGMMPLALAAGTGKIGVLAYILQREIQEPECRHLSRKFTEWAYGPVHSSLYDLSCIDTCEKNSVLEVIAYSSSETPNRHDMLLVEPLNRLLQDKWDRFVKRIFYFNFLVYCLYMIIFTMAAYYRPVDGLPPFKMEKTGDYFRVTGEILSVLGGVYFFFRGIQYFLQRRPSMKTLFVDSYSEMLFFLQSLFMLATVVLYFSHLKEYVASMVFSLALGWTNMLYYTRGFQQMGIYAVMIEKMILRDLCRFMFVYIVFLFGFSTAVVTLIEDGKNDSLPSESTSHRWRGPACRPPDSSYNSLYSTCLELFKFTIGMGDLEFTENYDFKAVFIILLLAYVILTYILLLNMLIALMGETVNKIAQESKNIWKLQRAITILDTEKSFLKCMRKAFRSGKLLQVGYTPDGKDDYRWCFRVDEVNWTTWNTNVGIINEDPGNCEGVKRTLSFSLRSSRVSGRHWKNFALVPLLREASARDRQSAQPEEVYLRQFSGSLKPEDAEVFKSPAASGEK

[2] = molecular target: T2, human TRPA1 (Homo sapiens, UniProt O75762, K186N/R3C/R58T); experiment: Intracellular calcium (Fluo-4, FLIPR) activation of TRPA1 cells by GRAS compounds; format: cell-based; details: for activation at 1000 µM / activation at 100 µM: read-out: A1 activation, % of agonist value;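 on all read-outs here: TRPA1-expressing cells, fluorescence read on a FLIPR Tetra (ex 488 nm, em 514 nm) every 2 s for 10 min after compound addition, baseline subtracted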
T2 construct: expressed in transfected cells; pcDNA3 control cells
T2 sequence (O75762 whole entry R3C/R58T/K186N): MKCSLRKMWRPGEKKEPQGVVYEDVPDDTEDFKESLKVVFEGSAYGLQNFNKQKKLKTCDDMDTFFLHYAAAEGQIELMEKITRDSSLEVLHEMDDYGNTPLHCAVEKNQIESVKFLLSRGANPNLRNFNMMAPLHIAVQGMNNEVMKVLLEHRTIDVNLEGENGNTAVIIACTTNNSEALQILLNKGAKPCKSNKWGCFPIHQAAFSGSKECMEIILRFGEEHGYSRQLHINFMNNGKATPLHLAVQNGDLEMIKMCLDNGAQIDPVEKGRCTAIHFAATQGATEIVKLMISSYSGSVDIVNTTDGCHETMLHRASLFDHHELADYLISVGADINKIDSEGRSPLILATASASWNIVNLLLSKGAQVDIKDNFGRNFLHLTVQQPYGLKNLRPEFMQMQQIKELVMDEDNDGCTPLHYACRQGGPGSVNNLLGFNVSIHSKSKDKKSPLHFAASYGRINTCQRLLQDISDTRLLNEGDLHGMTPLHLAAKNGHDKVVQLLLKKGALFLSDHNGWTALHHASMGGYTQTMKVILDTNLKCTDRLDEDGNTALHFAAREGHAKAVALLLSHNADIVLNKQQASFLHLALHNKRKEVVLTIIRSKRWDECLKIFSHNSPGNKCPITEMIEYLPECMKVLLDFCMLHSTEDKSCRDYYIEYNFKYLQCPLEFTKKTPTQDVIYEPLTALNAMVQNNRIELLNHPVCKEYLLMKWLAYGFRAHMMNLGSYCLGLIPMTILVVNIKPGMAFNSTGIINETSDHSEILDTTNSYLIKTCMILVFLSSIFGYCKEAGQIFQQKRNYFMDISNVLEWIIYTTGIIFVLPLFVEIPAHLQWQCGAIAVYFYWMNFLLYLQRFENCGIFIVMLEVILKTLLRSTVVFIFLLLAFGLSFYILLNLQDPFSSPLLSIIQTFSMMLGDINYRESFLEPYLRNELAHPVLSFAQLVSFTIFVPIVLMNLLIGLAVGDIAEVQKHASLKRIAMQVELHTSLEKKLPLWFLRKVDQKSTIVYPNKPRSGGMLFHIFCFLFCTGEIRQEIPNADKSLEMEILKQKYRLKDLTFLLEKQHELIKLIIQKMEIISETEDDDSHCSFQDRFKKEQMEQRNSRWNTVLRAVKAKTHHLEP

[3] = system: TRPA1V1; experiment: Intracellular calcium (Fluo-4, FLIPR) activation of TRPA1V1 cells (co-expressing TRPA1 and TRPV1) by GRAS compounds; format: cell-based, human;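 further: HEK293 cells co-expressing TRPA1 and TRPV1, fluorescence read at 488/514 nm after baseline subtraction, recorded every 2 s over 10 min, ionomycin 10 µM and buffer as controls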
Procedure: TRPV1, TRPA1, TRPA1V1 and pcDNA3 cells were grown in 15 mL growth medium [high glucose DMEM (Dulbecco's modification of Eagle's medium) supplemented with 10% FBS (fetal bovine serum), 100 μg/mL penicillin/streptomycin, 100 μg/mL G418] in a 75 cm^2 flask for 3 days in a mammalian cell culture incubator at 33° C. and 5% CO2. TRP Cells were detached with 8 mL of PBS (without calcium or magnesium); for pcDNA3 cells, trypsin was used for releasing the cells. The detached cells were spun at low speed (800-900 rpm for 3 min) to pellet the cells. […] The cells were washed once with 45 mL assay buffer (1×HBSS, 20 mM HEPES) by low speed centrifugation (800-900 rpm for 3 min) and resuspended in 11 mL of the assay buffer in a reagent reservoir. […] The plates were set at room temperature for 30 min. The plates were read in a FLIPR^TETRA instrument (Molecular Devices, Sunnyvale, Calif.) at λex 488 nm and λem 514 nm to record baseline fluorescence following which 20 μL of test material at 1 mM or 100 μM final concentration for pure compounds in a GRAS library or 0.004% for extracts. For agonists, capsaicin 350 nM and AITC at 30 μM; and for controls, ionomycin 10 μM and buffer alone) was added to each well using the dispenser provided in the FLIPR. The data point was recorded every 2 seconds for a total of 10 min.
Average value for activation from three independent assay plates are presented as % of agonist value (AITC, 30 μM for TRPA1 and capsaicin, 350 nM for TRPV1. For TRPA1V1, we used AITC, 30 μM or capsaicin, 350 nM depending on if the compound is an A1 agonist or a V1 agonist. For compounds that activated both A1 and V1, we used AITC for normalization). Variation among triplicates was within 10% of each other. Assayed at 1 mM for pure compounds and 0.004% for extracts.

[4] = Table 1(a), 1 mM, relative to capsaicin 350 nM, average of three plates
[5] = Table 1(a), 1 mM, relative to AITC 30 μM, average of three plates
[6] = Table 1(b), 1 mM, relative to capsaicin 350 nM
[7] = Table 1(b), 1 mM, relative to AITC 30 μM
[8] = Table 1(a), 100 μM (*), relative to capsaicin 350 nM
[9] = Table 1(a), 100 μM (*), relative to AITC 30 μM
[10] = Table 1(e), 100 μM (*), relative to AITC 30 μM
[11] = Table 1(c), 1 mM, relative to AITC 30 μM
[12] = Table 1(i), 1 mM, relative to capsaicin 350 nM, […]
[13] = Table 1(i), 1 mM, relative to AITC 30 μM, […]
[14] = Table 1(i), 1 mM, relative to AITC 30 μM or capsaicin 350 nM depending on compound, […]

CC/C=C\CCCCO [5-Octen-1-ol, (Z)]
V1 activation, % of agonist value [1, 4]: 20.50%
A1 activation, % of agonist value [2, 5]: 62.30%
A1V1 activation, % of agonist value [3, 5]: 69.24%

CCCCCC(=O)CCCC(=O)O [5-Oxodecanoic acid]
activation at 1000 µM [1, 6]: 53.4%
activation at 1000 µM [2, 7]: 28.6%
A1V1 activation, % of agonist value [3, 7]: 39.34%

OCCCCCc1ccccc1 [5-Phenyl-1-pentanol]
activation at 1000 µM [1, 6]: 113%
activation at 1000 µM [2, 7]: 119%
A1V1 activation, % of agonist value [3, 7]: 52.1%

CCCCCC/C=C/C=O [(E)-2-Nonenal]
activation at 1000 µM [1, 6]: 89%
activation at 1000 µM [2, 7]: 130%
A1V1 activation, % of agonist value [3, 7]: 61.8%

C=CCSSSCC=C [Allyl-trisulfide]
activation at 1000 µM [1, 4]: 32.9%
activation at 1000 µM [2, 5]: 83.5%
A1V1 activation, % of agonist value [3, 5]: 89.08%

CCCCCC(=Cc1ccccc1)CO [Alpha-Amylcinnamyl alcohol]
activation at 1000 µM [1, 4]: 21.1%
activation at 1000 µM [2, 5]: 96.4%
A1V1 activation, % of agonist value [3, 5]: 77.36%

CC1COC(c2ccccc2)O1 (stereo not shown) [Benzaldehyde propylene glycol acetal]
V1 activation, % of agonist value [1, 6]: 34.38%
A1 activation, % of agonist value [2, 7]: 48.03%
A1V1 activation, % of agonist value [3, 7]: 78.33%

c1ccc2scnc2c1 [Benzothiazole]
activation at 100 µM [1, 8]: 33.4%
activation at 100 µM [2, 9]: 51.3%
A1V1 activation, % of agonist value [3, 9]: 74.4%

CC1=C(CC=O)C(C)(C)CCC1 [Beta-Cyclohomocitral]
V1 activation, % of agonist value [1, 4]: 61.74%
A1 activation, % of agonist value [2, 5]: 81.44%
A1V1 activation, % of agonist value [3, 5]: 66.79%

CCCCOC(=O)c1ccc(O)cc1 [Butylparaben, Butyl 4-hydroxybenzoate]
activation at 1000 µM [1, 4]: 79.1%
activation at 1000 µM [2, 5]: 105%
activation at 100 µM [2, 10]: 98.7%
A1V1 activation, % of agonist value [3, 5]: 98.1%
A1V1 activation, % of agonist value [3, 10]: 127.3%

Cc1ccc(C(C)C)cc1O [Carvacrol]
activation at 1000 µM [1, 6]: 84.6%
activation at 1000 µM [2, 7]: 115%
A1V1 activation, % of agonist value [3, 7]: 134.1%

CC(C)=CCCC(C)CCO (stereo not shown) [Citronellol]
activation at 1000 µM [1, 6]: 106%
activation at 1000 µM [2, 7]: 102%
A1V1 activation, % of agonist value [3, 7]: 34.4%

COc1cc(/C=C/C(=O)CC(=O)/C=C/c2ccc(O)c(OC)c2)ccc1O [Curcumin]
activation at 1000 µM [1, 6]: 43.2%
activation at 1000 µM [2, 7]: 95.3%
activation at 100 µM [2, 10]: 102%
A1V1 activation, % of agonist value [3, 7]: 171.6%
A1V1 activation, % of agonist value [3, 10]: 150.3%

O=C(O)CC1CCCCC1 [Cyclohexaneacetic acid]
activation at 1000 µM [1, 4]: 56.6%
activation at 1000 µM [2, 5]: 20.6%
A1V1 activation, % of agonist value [3, 5]: 61.28%

CCOC(=O)C(O)Cc1ccccc1 (stereo not shown) [Ethyl 2-hydroxy-3-phenylpropanoate]
activation at 1000 µM [1, 4]: 29.2%
activation at 1000 µM [2, 5]: 95.6%
A1V1 activation, % of agonist value [3, 5]: 90.76%

CCCCCC(O)CC(=O)OCC (stereo not shown) [Ethyl 3-hydroxyoctanoate]
activation at 1000 µM [1, 6]: 28.1%
activation at 1000 µM [2, 7]: 97.3%
A1V1 activation, % of agonist value [3, 7]: 76.90%

CC(C)=CCCC(C)=CCCC(C)=CC=O [Farnesal]
V1 activation, % of agonist value [1, 4]: 41.22%
A1 activation, % of agonist value [2, 5]: 97.58%
A1V1 activation, % of agonist value [3, 5]: 104.4%

CCCCCC1CCC(=O)O1 (stereo not shown) [Gamma-Nonalactone]
V1 activation, % of agonist value [1, 4]: 66.34%
A1 activation, % of agonist value [2, 5]: 33.32%
A1V1 activation, % of agonist value [3, 5]: 69.15%

CC(C)=CCC/C(C)=C/CO [Geraniol]
activation at 1000 µM [1]: 42.2%
activation at 1000 µM [2, 7]: 82.5%
A1V1 activation, % of agonist value [3]: 63.93%

CCCC(=O)OC/C=C(\C)CCC=C(C)C [Geranyl butyrate]
activation at 1000 µM [1, 4]: 28.9%
activation at 1000 µM [2, 5]: 76.9%
A1V1 activation, % of agonist value [3, 5]: 76.26%

CCCCCC1C(=O)CCC1CC(=O)OC (stereo not shown) [Hedione, Methyl dihydrojasmonate]
activation at 1000 µM [1, 6]: 25.6%
activation at 1000 µM [2, 7]: 43.5%
activation at 1000 µM [2, 11]: 54.4%
A1V1 activation, % of agonist value [3, 7]: 60.64%
A1V1 activation, % of agonist value [3, 11]: 59.58%

CC(C=O)Cc1ccc2c(c1)OCO2 (stereo not shown) [Helional]
V1 activation, % of agonist value [1, 4]: 23.38%
A1 activation, % of agonist value [2, 5]: 78.00%
A1V1 activation, % of agonist value [3, 5]: 71.85%

CCCCCCC=O [Heptaldehyde]
activation at 100 µM ([1]; Table 1(i), 100 μM (*), relative to capsaicin 350 nM, […]): 65.3%
TRPV1 activation selectivity, in words [1]: TRPV1 activators which do not modulate TRPA1 or TRPA1V1
activation at 100 µM ([2]; Table 1(i), 100 μM (*), relative to AITC 30 μM, […]): 4.3%
A1V1 activation, % of agonist value ([3]; Table 1(i), 100 μM (*), relative to AITC 30 μM or capsaicin 350 nM depending on compound, […]): 2.4%

CC(C)CCOC(=O)CCc1ccco1 [Isoamyl 3-(2-furan)propionate]
V1 activation, % of agonist value [1, 6]: 32.66%
A1 activation, % of agonist value [2, 7]: 123.3%
A1V1 activation, % of agonist value [3, 7]: 106.9%

S=C=NCc1ccccc1 [Isothiocyanic acid, benzyl ester]
activation at 1000 µM [1, 4]: 59.2%
activation at 1000 µM [2, 5]: 110%
A1V1 activation, % of agonist value [3, 5]: 180.5%

CCCCC/C=C\C/C=C\CCCCCCCC(=O)O [Linoleic acid]
activation at 1000 µM [1, 4]: 24.9%
activation at 1000 µM [2, 5]: 170%
A1V1 activation, % of agonist value [3, 5]: 170.4%

O=C(O)CC(O)C(=O)O (stereo not shown) [Malic acid]
activation at 1000 µM [1, 12]: 67.5%
TRPV1 activation selectivity, in words [1]: TRPV1 activators which do not modulate TRPA1 or TRPA1V1
activation at 1000 µM [2, 13]: 1.9%
A1V1 activation, % of agonist value [3, 14]: 2.4%

COC(=O)C1CCCCC1 [Methyl cyclohexanecarboxylate]
activation at 1000 µM [1, 6]: 69.5%
activation at 1000 µM [2, 7]: 45.5%
A1V1 activation, % of agonist value [3, 7]: 85.17%

CC/C=C\C/C=C\C/C=C\CCCCCCCC(=O)OC [Methyl linolenate]
activation at 1000 µM [1, 4]: 31%
activation at 1000 µM [2, 5]: 108%
A1V1 activation, % of agonist value [3, 5]: 104%

CCCCCCCCC(=O)NCc1ccc(O)c(OC)c1 [Nonivamide, N-Vanillylnonanamide]
activation at 100 µM [1]: 65.5%
activation at 1000 µM [1]: 91.4%
activation at 100 µM [2]: 69%
A1V1 activation, % of agonist value ([3]; Table 1(g), 1 mM, relative to capsaicin 350 nM): 135.6%
A1V1 activation, % of agonist value ([3]; Table 1(i), 100 μM (*), relative to AITC 30 μM or capsaicin 350 nM depending on compound, values less than 20-25% considered inactive): 1.2%

C=C(C)[C@@H]1CC=C(CO)CC1 [Perillyl alcohol]
activation at 1000 µM [1, 4]: 20.4%
activation at 1000 µM [2, 5]: 82%
A1V1 activation, % of agonist value [3, 5]: 73.28%

O=C(O)C(=O)Cc1ccccc1 [Phenylpyruvic acid]
activation at 1000 µM [1, 4]: 32.5%
activation at 1000 µM [2, 5]: 68%
A1V1 activation, % of agonist value [3, 5]: 74.05%

O=C(CCc1ccc(O)cc1)c1c(O)cc(O)cc1O [Phloretin]
activation at 100 µM [1, 8]: 122%
activation at 100 µM [2, 9]: 160%
A1V1 activation, % of agonist value [3, 9]: 174.3%

CC1=CC(=O)C(C(C)C)CC1 (stereo not shown) [Piperitone]
activation at 1000 µM [1, 6]: 53.3%
activation at 1000 µM [2, 7]: 90.1%
A1V1 activation, % of agonist value [3, 7]: 109.1%

CC(=O)OCc1ccc2c(c1)OCO2 [Piperonyl acetate]
activation at 1000 µM [1]: 20.9%
activation at 1000 µM [2]: 62.7%
A1V1 activation, % of agonist value [3, 7]: 78.00%

CC(C)C(=O)OCc1ccc2c(c1)OCO2 [Piperonyl isobutyrate]
activation at 1000 µM [1, 6]: 30%
activation at 1000 µM [2, 7]: 61%
A1V1 activation, % of agonist value [3, 7]: 82.33%

CCCSSc1ccoc1C [Propyl 2-methyl-3-furyl disulfide]
activation at 1000 µM [1, 4]: 25%
activation at 1000 µM [2, 5]: 210%
activation at 1000 µM [2, 11]: 266%
A1V1 activation, % of agonist value [3, 5]: 194.3%
A1V1 activation, % of agonist value [3, 11]: 242.5%

CCCOC(=O)c1ccc(O)cc1 [Propylparaben]
activation at 1000 µM [1, 12]: 1.6%
activation at 1000 µM [2, 13]: 93.2%
TRPA1 activation selectivity, in words ([2]; statement in description, see Table 1(i)): TRPA1 activator which does not modulate TRPV1 or TRPA1V1
A1V1 activation, % of agonist value [3, 14]: 2.1%

CC(=O)/C=C/C=C(\C)CCC=C(C)C [Pseudoionone]
V1 activation, % of agonist value [1, 4]: 20.76%
A1 activation, % of agonist value [2, 5]: 105.5%
A1V1 activation, % of agonist value [3, 5]: 127.2%

CC/C=C\CCOC(=O)C(C)=O [Pyruvic caid cis-3-hexen-1-yl ester]
V1 activation, % of agonist value [1, 4]: 21%
A1 activation, % of agonist value [2, 5]: 45%
A1V1 activation, % of agonist value [3, 5]: 40%

CCCCCCCCCCCCCCCC(=O)OC/C=C(C)/C=C/C=C(C)/C=C/C1=C(C)CCCC1(C)C [Retinol palmitate]
activation at 1000 µM [1, 4]: 32.8%
activation at 1000 µM [2, 5]: 76.4%
A1V1 activation, % of agonist value [3, 5]: 76.97%

O=C1NS(=O)(=O)c2ccccc21 [Saccharin]
activation at 1000 µM [1]: 80.8%
activation at 1000 µM [2]: 92.6%
A1V1 activation, % of agonist value [3]: 93.25%

Cc1ccc(C(C)C)c(O)c1 [Thymol]
activation at 1000 µM [1, 6]: 106%
activation at 1000 µM [2, 7]: 159%
A1V1 activation, % of agonist value [3, 7]: 105.7%
